From US20100063085A1, “METHOD OF TREATING LEARNING IMPAIRMENT IN DOWN'S SYNDROME SUBJECTS” (University Court of The University of Dundee, priority 2008, published 2010)
Where two headings read alike, the source gives them in different places.

What was measured:
Type in all cases: biochemical
SAPK2a/p38 = SAPK2a/p38 (Homo sapiens, UniProt Q16539); assay: SAPK2a/p38 33P kinase assay; conditions: read-out: SAPK2a/p38 activity as percentage of control without inhibitor
Method: (§1) All assays (25.5 μl) were carried out at room temperature (21° C.) and were linear with respect to time and enzyme concentrations under the conditions used. Assays were performed for 30 minutes except assays for LCK and PKB which were performed for 15 minutes using Multidrop Micro reagent dispensers (Thermo Electron Corporation, Waltham, Mass. 02454, USA) in a 96-well format. The concentration of […] [γ-^33P] ATP (800 cpm/pmol) in the assays was one of three concentrations (5, 20 or 50 μM) in order to be at or below Km for ATP for the enzyme. Assays were initiated with MgATP and stopped by addition of 5 μl of 0.5M orthophosphoric acid. Assays were then harvested onto P81 filterplates using a unifilter harvester (PerkinElmer, Boston, Mass. 02118, USA), with a wash buffer of 50 mM orthophosphoric acid. Filterplates were then air dried overnight. 10 μl of Microscint O was added per well prior to counting for radioactivity.
(§2) MKK1, JNK/SAPK1c, SAPK2a/p38, SAPK2b/p38β2, SAPK3/p38γ, SAPK4/p38δ, MAPK2/ERK2, MAPKAP-K1β, MAPKAP-K2, MSK1, PRAK, PKA, PKCα, PDK1, SGK, p70S6K, GSK3β, ROCK-II, PRK2, AMPK, CHK1, CHK2, CK2, PHK, LCK, were assayed according to Davies et al., (Davies, S. P., Reddy, H., Caivano, M. and Cohen, P. Biochem. J. 351, 95-105, 2000.
(§3) CSK and CDK2/cyclinA, were assayed according to Bain et al. (Bain J, McLauchlan H, Elliott M, Cohen P. Biochem J. 371, 199-204, 2003., except that ATP concentrations were either 5, 20 or 50 micromolar so that they were at or below the Km for ATP. The ATP concentrations used were as follows, 5 μM for assays of MKK1, SAPK3, SAPK4, GSK3β, PRK2 CK2 20 μm for assays of JNK, SAPK2β, MAPKAP-K2, MSK1, PRAK, PKA, […], PDK1, SGK, p70S6K, ROCK-II, CHK1, CHK2, CSK, CDK2, and 50 μM for assays of SAPK2a, MAPK2/ERK2, AMPK, LCK, PHK and MAPKAP-K1β.

MSK1 = MSK1 (Homo sapiens, UniProt O75582); assay: MSK1 33P kinase assay; conditions: read-out: MSK1 activity as percentage of control without inhibitor
Method: as §1, §2, §3

DYRK2 = DYRK2 (Homo sapiens, UniProt Q92630); assay: DYRK2 33P kinase assay (analogous to DYRK1a); conditions: ATP at 50 μM; half log dilutions starting at 100 μM
Method: (§4) DYRK1A (5-20 mU of diluted in 50 mM Tris pH 7.5, 0.1 mM EGTA) was assayed against Woodtide ([…]) in a final volume of 25.5 μl containing 50 mM Tris pH 7.5, 0.1 mM EGTA, 350 uM substrate peptide, 10 mM magnesium acetate and 0.5 μl inhibitor and incubated at room temperature for 5 mins, followed by the addition of 0.05 mM [33P-gamma-ATP] (50-1000 cpm/pmole) and incubated for 30 mins at room temperature. Assays were stopped by addition of 5 μl of 0.5 M (3%) orthophosphoric acid then harvested onto P81 Unifilter plates with a wash buffer of 50 mM orthophosphoric acid. Filterplates were then air dried overnight. 10 μl of Microscint O was added per well prior to counting for radioactivity.
DYR2 and DYRK3 were assayed in an analogous manner to that described above for DYRK1a.

DYRK3 = DYRK3 (Homo sapiens, UniProt O43781); assay: DYRK3 33P kinase assay (analogous to DYRK1a); conditions: ATP at 50 μM; half log dilutions starting at 100 μM
Method: as §4

Chain of MSK1 (O75582 whole entry, species assumed): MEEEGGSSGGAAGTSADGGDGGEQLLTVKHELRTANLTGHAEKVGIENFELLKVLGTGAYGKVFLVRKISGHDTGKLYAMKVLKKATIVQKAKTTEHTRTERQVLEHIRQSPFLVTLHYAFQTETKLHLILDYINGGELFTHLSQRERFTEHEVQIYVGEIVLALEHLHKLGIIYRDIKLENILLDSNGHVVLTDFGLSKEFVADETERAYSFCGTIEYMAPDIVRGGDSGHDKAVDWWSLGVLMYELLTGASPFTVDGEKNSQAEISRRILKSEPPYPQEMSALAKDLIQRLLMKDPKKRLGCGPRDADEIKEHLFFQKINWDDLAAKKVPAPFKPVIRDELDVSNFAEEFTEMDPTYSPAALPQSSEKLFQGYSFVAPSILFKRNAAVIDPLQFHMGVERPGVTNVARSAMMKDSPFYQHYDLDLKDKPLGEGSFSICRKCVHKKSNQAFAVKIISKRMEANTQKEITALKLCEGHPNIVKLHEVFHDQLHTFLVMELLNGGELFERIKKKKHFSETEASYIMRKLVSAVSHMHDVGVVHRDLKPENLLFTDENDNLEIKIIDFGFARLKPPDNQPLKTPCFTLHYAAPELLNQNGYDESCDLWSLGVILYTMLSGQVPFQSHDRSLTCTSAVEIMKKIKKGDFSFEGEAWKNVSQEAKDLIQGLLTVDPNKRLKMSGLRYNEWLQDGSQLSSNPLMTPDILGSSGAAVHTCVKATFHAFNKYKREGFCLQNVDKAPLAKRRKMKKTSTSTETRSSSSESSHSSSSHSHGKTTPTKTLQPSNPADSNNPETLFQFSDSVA
Chain of SAPK2a/p38 (Q16539 whole entry): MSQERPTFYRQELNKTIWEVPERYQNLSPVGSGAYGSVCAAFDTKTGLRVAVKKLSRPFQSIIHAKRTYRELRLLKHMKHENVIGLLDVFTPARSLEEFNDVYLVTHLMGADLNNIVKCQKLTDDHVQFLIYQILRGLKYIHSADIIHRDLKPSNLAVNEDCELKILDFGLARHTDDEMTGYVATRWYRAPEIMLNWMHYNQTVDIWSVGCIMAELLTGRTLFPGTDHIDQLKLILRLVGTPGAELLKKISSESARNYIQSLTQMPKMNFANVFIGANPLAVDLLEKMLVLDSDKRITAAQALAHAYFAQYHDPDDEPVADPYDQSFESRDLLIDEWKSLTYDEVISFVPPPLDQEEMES
Chain of DYRK2 (Q92630 whole entry, species assumed): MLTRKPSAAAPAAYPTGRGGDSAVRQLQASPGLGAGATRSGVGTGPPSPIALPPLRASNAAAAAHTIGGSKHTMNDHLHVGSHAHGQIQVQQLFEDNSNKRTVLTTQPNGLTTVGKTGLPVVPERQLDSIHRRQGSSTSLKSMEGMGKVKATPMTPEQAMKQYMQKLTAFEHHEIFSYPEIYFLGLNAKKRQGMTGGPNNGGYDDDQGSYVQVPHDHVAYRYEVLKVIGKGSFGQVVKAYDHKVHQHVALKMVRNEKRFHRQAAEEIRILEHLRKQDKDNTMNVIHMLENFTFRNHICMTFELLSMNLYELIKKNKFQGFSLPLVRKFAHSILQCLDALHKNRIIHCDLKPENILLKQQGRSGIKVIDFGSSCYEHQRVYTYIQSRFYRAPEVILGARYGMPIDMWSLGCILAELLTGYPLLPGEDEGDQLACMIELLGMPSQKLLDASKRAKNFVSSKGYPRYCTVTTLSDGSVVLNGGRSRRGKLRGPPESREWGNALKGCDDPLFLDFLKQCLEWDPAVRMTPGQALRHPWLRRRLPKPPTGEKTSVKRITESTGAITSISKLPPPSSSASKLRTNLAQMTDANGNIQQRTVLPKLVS
Chain of DYRK3 (O43781 whole entry, species assumed): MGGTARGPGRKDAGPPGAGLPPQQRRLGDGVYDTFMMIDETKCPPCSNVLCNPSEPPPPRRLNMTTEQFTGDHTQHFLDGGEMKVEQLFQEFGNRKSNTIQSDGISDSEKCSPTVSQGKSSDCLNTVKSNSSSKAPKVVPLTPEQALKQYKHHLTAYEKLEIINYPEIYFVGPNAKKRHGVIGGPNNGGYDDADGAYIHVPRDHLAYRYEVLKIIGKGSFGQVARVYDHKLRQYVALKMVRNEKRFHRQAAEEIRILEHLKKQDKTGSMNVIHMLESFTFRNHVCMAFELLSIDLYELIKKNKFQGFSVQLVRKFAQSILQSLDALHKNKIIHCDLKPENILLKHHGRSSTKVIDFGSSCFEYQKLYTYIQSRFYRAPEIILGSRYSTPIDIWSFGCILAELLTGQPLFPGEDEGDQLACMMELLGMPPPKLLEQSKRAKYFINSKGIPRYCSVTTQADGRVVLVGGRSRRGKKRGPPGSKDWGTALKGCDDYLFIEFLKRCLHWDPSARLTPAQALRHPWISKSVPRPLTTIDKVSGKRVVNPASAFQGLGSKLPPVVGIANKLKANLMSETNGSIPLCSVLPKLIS

| Compound | remaining activity at 1 µM (SAPK2a/p38) | remaining activity at 10 µM (SAPK2a/p38) | remaining activity at 1 µM (MSK1; inhibitor 1 μM) | remaining activity at 10 µM (MSK1; inhibitor 10 μM) | remaining activity at 1 µM (SAPK2a/p38; inhibitor 1 μM) | remaining activity at 10 µM (SAPK2a/p38; inhibitor 10 μM) | remaining activity at 1 µM (MSK1) | remaining activity at 10 µM (MSK1) | IC50 (DYRK2) | IC50 (DYRK3) |
| --- | --- | --- | --- | --- | --- | --- | --- | --- | --- | --- |
| COc1ccc2c3c([nH]c2c1)C(C)=NCC3 [Harmaline] | 89% | 86% | 98% | 111% |  |  |  |  |  |  |
| CC1=NCCc2c1[nH]c1cc(O)ccc21 [Harmalol] |  |  | 84% | 59% | 95% | 74% |  |  |  |  |
| COc1ccc2c(c1)[nH]c1c(C)nccc12 [Harmine] | 95% | 81% |  |  |  |  | 90% | 88% | 900 nM | 800 nM |
